Results as given in US6552059B2, “Pharmaceutical composition for and method of treating leukemia” (priority 1995, dated 2003).
Where two headings read alike, the source gives them in different places.

Columns and labels:
leukemia (P388SS) = format: in vivo, mouse; settings: for % increase in survival time versus nontreated control: control = 100
Description: In an in vivo mouse study for leukemia (P388SS), carbendazim (2-carbonylaminobenzimidazole) was tested in combination with griseofulvin.

leukemia (P338) = format: in vivo; settings: ten mice; for mean number of survival days: dosed 5 days, off 2, dosed 5, off 3
Description: Mice were randomly selected and divided into five groups of ten mice each: Group 1—a control group receiving canola oil but no drug treatment; Group 2—a treatment group receiving 125 mg of cytoxan (2-bis(2-chloroethyl)-amino-1-oxo-2-aza-5-oxophosphoridin) per kg of body weight; Group 3—a treatment group receiving 4000 mg of carbendazim per kg of body weight; Group 4—a treatment group receiving 2500 mg of carbendazim per kg of body weight; and Group 5—a treatment group receiving 1000 mg of carbendazim per kg of body weight. The five groups were infected with leukemia (P338). The diseased animals were dosed for five days, off two days, dosed again for another five days and off again for three days.

COC1=CC(=O)C[C@@H](C)[C@]12Oc1c(Cl)c(OC)cc(OC)c1C2=O [Griseofulvin]
% increase in survival time versus nontreated control (leukemia (P388SS); griseofulvin 3000 mg/kg, carbendazim 0 mg/kg): 130% | % increase in survival time versus nontreated control (leukemia (P388SS); griseofulvin 4000 mg/kg, carbendazim 0 mg/kg): 165% | % increase in survival time versus nontreated control (leukemia (P388SS); griseofulvin 5000 mg/kg, carbendazim 0 mg/kg): 213%

COC(=O)Nc1nc2ccccc2[nH]1 [carbendazim, 2-(methoxycarbonylamino)benzimidzole]
% increase in survival time versus nontreated control (leukemia (P388SS); griseofulvin 0 mg/kg, carbendazim 1000 mg/kg): 153% | % increase in survival time versus nontreated control (leukemia (P388SS); griseofulvin 0 mg/kg, carbendazim 2000 mg/kg): 190% | % increase in survival time versus nontreated control (leukemia (P388SS); griseofulvin 0 mg/kg, carbendazim 3000 mg/kg): 176% | mean number of survival days (leukemia (P338); Group 3, 4000 mg carbendazim per kg, after infection with leukemia): 17.3 days | mean number of survival days (leukemia (P338); Group 4, 2500 mg carbendazim per kg): 16.5 days | mean number of survival days (leukemia (P338); Group 5, 1000 mg carbendazim per kg): 14.1 days

O=P1(N(CCCl)CCCl)NCCCO1 (centres unmarked) [cytoxan, 2-bis(2-chloroethyl)-amino-1-oxo-2-aza-5-oxophosphoridin, reference compound]
deaths during the test period (leukemia (P388SS); positive control, 300 mg/kg (qdx1)): no deaths | deaths after infection with leukemia (leukemia (P338); Group 2, 125 mg cytoxan per kg, up to twenty one days after infection): none died
